The values that follow come from PMC8980233, “Differentiating the Neuropharmacological Properties of Nicotinic Acetylcholine Receptor-Activating Alkaloids” (Frontiers in Pharmacology, 2022).

SMILES strings stand for the structures.

One data set deals with C57Bl/6 mice. The data set is described as follows: Tolerability test (body weight, body temperature, passive signs, manipulation responses). Conditions: for BT (°C) naïve / Manipulations naïve / Passive naïve: baseline; for BW Day 1 / BW Day 2: mean ± SD. On the procedure: In brief, mice were single-housed prior to the test and evaluated for baseline body weight, body temperature, and other parameters. […] On day 1, the mice were i. p. injected with saline (vehicle) or a test compound at 10 ml/kg body weight. Then, body temperature was measured at 15 min, 4 h, and 24 h and body weight on days 1 and 2. Neurological and motor parameters were evaluated at 15 min, 2 h, and 4 h after administration. The list of parameters is provided in Supplementary Figure S1 in Supplementary Material S1.
In addition, within 5 min after the 15-min observation period, mice were placed in open-field chambers for 30 min to determine their general motor activity (distance traveled), ambulatory time, and number of rears. The open-field chambers were made of Plexiglas (27.3 × 27.3 × 20.3 cm; Med Associates Inc, St Albans, VT, United States) surrounded by infrared photobeam sources (16 × 16 × 16 beams). Horizontal activity (distance and time traveled) and vertical activity (number and frequency of rears) were measured by consecutive beam breaks. At the end of each open-field test session, the chambers were thoroughly cleaned with NOLVASAN® solution (Zoetis Services LLC, Parsippany, NJ, United States). Four mice were used per treatment condition. Mice were terminated after completion of the last tolerability observation.
All compounds were diluted in saline, and the pH was adjusted to approximately 7.0 with HCl or NaOH on the day of the experiment. […] The doses were calculated based on the free base molecular weight of the compounds.
For the tolerability tests, passive signs and manipulation responses were analyzed for effects of the treatment by the Kruskal–Wallis test. Body temperature and body weight data were analyzed by two-way repeated measures analysis of variance (ANOVA). The total distance and time traveled and number and frequency of rears in the open-field activity test were analyzed by one-way ANOVA, followed by the Tukey post-hoc test. For the analyses of the zebrafish NTT data, one-way ANOVA was used, followed by Dunnett’s multiple comparison test, if it passed the Shapiro-Wilk normality test. […] An effect was considered significant if p < 0.05. The half maximal effective concentration (EC50) and half-maximal inhibitory concentration (IC50) for the receptor pharmacology and neurotransmitter release assay were determined by using nonlinear regression analysis. Statistical analyses were conducted using GraphPad Prism.

The target in the next data set is α4β2 nAChR (Homo sapiens, UniProt P17787+P43681). The data set is described as follows: nAChR functional assay, automated patch-clamp. The format is cell-based. On the procedure:
(§1) Electrophysiological responses were recorded using an automated patch-clamp Patchliner Octo® system (Nanion Technologies, Munich, Germany) equipped with two EPC-10 Quadro patch-clamp amplifiers (HEKA Elektronik, Lambrecht, Germany) as described by ([Alijevic et al., 2020]). In brief, Chinese hamster ovary (CHO) or human embryonic kidney-293 (HEK-293) cells stably expressing human nAChRs (Charles River Laboratories, Wilmington, MA, United States) were maintained in DMEM/F12 medium (Gibco, Thermo Fisher Scientific, Waltham, MA, United States) supplemented with 10% heat-inactivated fetal bovine serum (FBS; Gibco) and penicillin–streptomycin (100 U/mL and 0.1 mg/ml, respectively; Sigma-Aldrich, St. Louis, MO, United States) at 37°C in 5% CO2 and 70% humidity. The following selection antibiotics were used for the cell lines: G418 (0.25 mg/ml; Sigma-Aldrich) and Zeocin^TM (0.4 mg/ml; InvivoGen, San Diego, CA, United States) for α7/Ric3 nAChR and α3β4 nAChR cells; puromycin (8 μg/ml; InvivoGen) and hygromycin B (0.4 mg/ml; Gibco) for α4β2 nAChR cells; and G418 (0.5 mg/ml), puromycin (0.25 μg/ml), and hygromycin B (0.02 mg/ml) for α6/3β2/β3 nAChR cells. The cells were used for characterizing nAChR pharmacology, because no endogenous ionotropic nicotinic receptors are found ([Roncarati et al., 2008]; [Papke and Smith-Maxwell, 2009]; [Kirsch et al., 2016]; [Scheffel et al., 2018]). The subunit distributions in the cells have been previously described ([Alijevic et al., 2020]). The human nAChRs were selected due to the lack of commercially available nAChR expression systems for mouse or zebrafish. The translatability of findings between zebrafish and human nAChR activities have been previously reported ([Papke and Smith-Maxwell, 2009]; [Papke et al., 2012]; [Alijevic et al., 2020]).
(§2) On the day of the experiment, nAChR-expressing cells were suspended in extracellular solution (in mM: 140 NaCl, 4KCl, one MgCl2, two CaCl2, five glucose, and 10 HEPES, adjusted to pH 7.4 with NaOH (298 mOsmol)), then placed in the Patchliner Octo® system. The internal solution contained in mM: 50 KCl, 60 kF, 10 NaCl, 20 EGTA, and 10 HEPES, adjusted to pH 7.2 with KOH (285 mOsmol). […] Data were analyzed using the Patchmaster software and corrected for leak current. The data acceptance criteria were as follows: seal resistance >100 MΩ; seal resistance loss variation <50%; access resistance <20 MΩ; and minimum current amplitude elicited by maximal effect concentration acetylcholine >50 pA. Offline data analysis was performed in OpenOffice™ (v4.1.2; The Apache Software Foundation, Wakefield, MA, United States). Data are presented as mean ± S.D. All experiments were performed at room temperature (24°C) and repeated at least three times. Igor Pro (v6.2.2.2; WaveMetrics, Lake Oswego, OR, United States) or Prism (v8.2.1) were used for assessing the concentration–response curves.
(Patch clamp records ionic current or voltage across a cell membrane.)

Another data set addresses α6/3β2β3 nAChR (Homo sapiens, UniProt P17787+P32297+Q15825). The data set is described as follows: nAChR functional assay, automated patch-clamp. The data set is classed as cell-based. On the procedure:
as §1, §2

α4β2 nAChR, sequence (P43681 29-627 limits assumed): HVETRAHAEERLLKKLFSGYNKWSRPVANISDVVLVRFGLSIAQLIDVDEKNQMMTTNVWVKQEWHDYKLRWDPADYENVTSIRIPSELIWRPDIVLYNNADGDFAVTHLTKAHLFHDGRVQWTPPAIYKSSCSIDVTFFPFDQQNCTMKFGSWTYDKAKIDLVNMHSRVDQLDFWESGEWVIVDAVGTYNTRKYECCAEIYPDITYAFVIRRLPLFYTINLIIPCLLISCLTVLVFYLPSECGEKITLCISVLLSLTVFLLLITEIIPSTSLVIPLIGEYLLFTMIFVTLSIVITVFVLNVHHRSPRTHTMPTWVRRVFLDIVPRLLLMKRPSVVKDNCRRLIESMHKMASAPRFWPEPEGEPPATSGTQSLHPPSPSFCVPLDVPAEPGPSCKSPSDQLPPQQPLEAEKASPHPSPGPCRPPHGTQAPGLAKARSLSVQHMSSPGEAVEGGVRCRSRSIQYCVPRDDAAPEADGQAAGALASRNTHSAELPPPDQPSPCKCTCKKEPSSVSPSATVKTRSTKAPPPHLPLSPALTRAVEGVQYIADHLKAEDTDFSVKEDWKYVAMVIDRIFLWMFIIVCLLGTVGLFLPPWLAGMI
α4β2 nAChR, sequence (P17787 26-502): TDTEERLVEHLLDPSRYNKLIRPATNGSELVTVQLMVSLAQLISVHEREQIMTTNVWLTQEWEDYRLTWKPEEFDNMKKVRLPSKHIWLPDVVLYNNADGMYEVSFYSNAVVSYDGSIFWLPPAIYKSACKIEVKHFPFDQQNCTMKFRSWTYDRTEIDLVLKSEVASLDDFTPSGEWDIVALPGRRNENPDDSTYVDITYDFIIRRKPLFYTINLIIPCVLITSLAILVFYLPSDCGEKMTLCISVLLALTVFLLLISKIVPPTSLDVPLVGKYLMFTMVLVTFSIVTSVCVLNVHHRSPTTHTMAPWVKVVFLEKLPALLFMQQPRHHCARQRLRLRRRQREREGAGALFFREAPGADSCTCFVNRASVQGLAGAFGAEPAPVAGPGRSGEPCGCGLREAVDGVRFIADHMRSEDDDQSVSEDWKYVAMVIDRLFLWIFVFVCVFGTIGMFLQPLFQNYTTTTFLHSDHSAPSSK
α6/3β2β3 nAChR, sequence (Q15825+P32297 fused with the stated changes): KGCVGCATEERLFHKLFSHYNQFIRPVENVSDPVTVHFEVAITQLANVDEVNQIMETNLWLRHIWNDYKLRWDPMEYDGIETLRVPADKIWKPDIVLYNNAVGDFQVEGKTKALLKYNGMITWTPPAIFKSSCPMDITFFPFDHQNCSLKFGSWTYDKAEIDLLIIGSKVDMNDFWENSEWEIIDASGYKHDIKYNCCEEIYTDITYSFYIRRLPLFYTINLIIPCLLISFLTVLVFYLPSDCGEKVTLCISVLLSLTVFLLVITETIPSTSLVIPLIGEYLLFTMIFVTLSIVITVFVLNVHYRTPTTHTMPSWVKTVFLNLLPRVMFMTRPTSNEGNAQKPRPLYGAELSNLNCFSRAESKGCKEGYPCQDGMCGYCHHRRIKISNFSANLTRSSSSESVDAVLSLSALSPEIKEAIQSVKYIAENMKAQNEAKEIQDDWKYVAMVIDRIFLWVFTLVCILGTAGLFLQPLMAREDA
α6/3β2β3 nAChR, sequence (P17787 26-502): as the sequence (P17787 26-502) above
α6/3β2β3 nAChR, sequence (Q05901 25-458 partner limits assumed): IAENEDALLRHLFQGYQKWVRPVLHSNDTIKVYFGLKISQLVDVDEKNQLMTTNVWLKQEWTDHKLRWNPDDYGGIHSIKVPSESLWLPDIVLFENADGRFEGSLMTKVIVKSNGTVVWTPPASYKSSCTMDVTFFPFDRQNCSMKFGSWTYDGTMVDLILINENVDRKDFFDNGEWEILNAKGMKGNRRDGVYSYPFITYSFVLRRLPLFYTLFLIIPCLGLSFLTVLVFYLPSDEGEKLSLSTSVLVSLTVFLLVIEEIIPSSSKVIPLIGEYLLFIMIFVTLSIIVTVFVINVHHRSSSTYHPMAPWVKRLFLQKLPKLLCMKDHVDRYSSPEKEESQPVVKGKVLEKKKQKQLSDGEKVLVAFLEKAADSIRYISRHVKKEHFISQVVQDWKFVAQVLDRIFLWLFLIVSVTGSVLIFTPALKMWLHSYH

On to `CN1CCC[C@H]1c1cccnc1` [Nicotine, (-)-Nicotine], for which, in the data set on C57Bl/6 mice (0.25 mg/kg group), the “BT (°C) naïve” value was 37.83 ± 0.15 °C, the “Manipulations naïve” value is 0.00 ± 0.00 and the “Passive naïve” value was 0.00 ± 0.00. Besides, in the data set with C57Bl/6 mice (0.25 mg/kg i.p.), the “BT (°C) 15min” value is 37.48 ± 0.98 °C, the “BT (°C) 4hr” value came to 36.88 ± 0.97 °C, the “BT (°C) 24hr” value was determined as 36.43 ± 0.87 °C and the “Manipulations 15min” value is reported as 0.00 ± 0.00. In the data set with C57Bl/6 mice (0.25 mg/kg i.p.), the “Manipulations 2hr” value is reported as 0.00 ± 0.00, the “Manipulations 4hr” value is reported as 0.00 ± 0.00, the “Passive 15min” value came to 0.00 ± 0.00 and the “Passive 2hr” value is recorded as 0.00 ± 0.00. Further, in the data set with C57Bl/6 mice (0.25 mg/kg i.p.), the “Passive 4hr” value is 0.00 ± 0.00, the “BW Day 1” value was 24.54 ± 0.97 and the “BW Day 2” value was 24.33 ± 0.99. In addition, in the data set on C57Bl/6 mice (0.5 mg/kg group), the “BT (°C) naïve” value amounted to 37.93 ± 0.17 °C, the “Manipulations naïve” value is listed as 0.00 ± 0.00 and the “Passive naïve” value worked out at 0.00 ± 0.00. In addition, in the data set with C57Bl/6 mice (0.5 mg/kg i.p.), the “BT (°C) 15min” value came to 36.48 ± 0.90 °C, the “BT (°C) 4hr” value stood at 36.50 ± 0.44 °C, the “BT (°C) 24hr” value was 36.65 ± 0.41 °C and the “Manipulations 15min” value was determined as 0.00 ± 0.00. In the data set with C57Bl/6 mice (0.5 mg/kg i.p.), the “Manipulations 2hr” value is given as 0.00 ± 0.00, the “Manipulations 4hr” value was 0.00 ± 0.00, the “Passive 15min” value is 0.00 ± 0.00 and the “Passive 2hr” value is 0.00 ± 0.00. For the same molecule, in the data set with C57Bl/6 mice (0.5 mg/kg i.p.), the “Passive 4hr” value is 0.00 ± 0.00, the “BW Day 1” value came out at 24.58 ± 0.93 and the “BW Day 2” value stood at 24.76 ± 1.20. Moreover, in the data set with C57Bl/6 mice (1 mg/kg group), the “BT (°C) naïve” value amounted to 37.90 ± 0.16 °C, the “Manipulations naïve” value was determined as 0.00 ± 0.00 and the “Passive naïve” value came out at 0.00 ± 0.00. Also, in the data set with C57Bl/6 mice (1 mg/kg i.p.), the “BT (°C) 15min” value was 33.53 ± 0.85 °C, the “BT (°C) 4hr” value was found to be 36.55 ± 0.48 °C, the “BT (°C) 24hr” value worked out at 36.53 ± 0.31 °C and the “Manipulations 15min” value is reported as 0.00 ± 0.00. Besides, in the data set with C57Bl/6 mice (1 mg/kg i.p.), the “Manipulations 2hr” value was 0.00 ± 0.00, the “Manipulations 4hr” value amounted to 0.00 ± 0.00, the “Passive 15min” value was determined as 0.00 ± 0.00 and the “Passive 2hr” value stood at 0.00 ± 0.00. In the data set on C57Bl/6 mice (1 mg/kg i.p.), the “Passive 4hr” value is 0.00 ± 0.00, the “body temperature 15 min after the injection” value was “decreased the body temperature”, the “BW Day 1” value amounted to 24.55 ± 0.94 and the “BW Day 2” value was 24.10 ± 0.61. At α4β2 nAChR, the “agonist type at α4β2 nAChR” value is “potent full agonist”. For the same molecule, on α6/3β2β3 nAChR, the “agonist type at α6/3β2β3 nAChR” value was “potent full agonist”.

On to `CN1C(=O)CC[C@H]1c1cccnc1` [Cotinine, (-)-cotinine], for which, in the data set on C57Bl/6 mice (mouse, in vivo, ip, 10 mg/kg), the tolerability entry is “well tolerated”. The EC50 is more than 100 µM on α4β2 nAChR (mean ± S.D.) and more than 100 µM on α6/3β2β3 nAChR (mean ± S.D., read-out: α6/3β2β3 EC50).
